# Reference: paper PMC8482815, “Targeting Host Glycolysis as a Strategy for Antimalarial Development” (Frontiers in Cellular and Infection Microbiology, 2021)
# Values joined by “and” are separate entries in the source; they are usually repeats but may differ in a detail not shown here. Equal entries are not always repeated.
# System: human erythrocytes
# Experiment: Untargeted metabolomics and 13C-glucose tracing of enolase inhibitor treated erythrocytes
# Assay type: cell-based
# Conditions: 6h
# Procedure: Freshly collected erythrocytes were washed, resuspended to 10% hematocrit in buffer [25mM HEPES (pH 7.4), 120mM NaCl, 5.4mM KCl, 1.8mM CaCl2, and 1mM NaH2PO4], incubated for 1 hour at 37°C, then centrifuged at 2000xg for 5 minutes at 4°C, resuspended in fresh wash buffer to 30-40% hematocrit, and split into 210µL aliquots of packed erythrocytes. […] All samples were incubated at 37°C shaking at 500 RPM. Triplicate samples of supernatants and packed erythrocytes were collected at 0, 0.5, 1, and 6-hour intervals and snap-frozen in liquid N2.
# RBC and media samples were extracted at 1:10 and 1:20 dilutions, respectively, in 5:3:2 MeOH : MeCN:H2O v/v/v, and supernatants analyzed on a Thermo Vanquish UHPLC coupled to a Thermo Q Exactive mass spectrometer, as extensively described ([Nemkov et al., 2015]; [Nemkov et al., 2017]). The extraction buffer was supplemented with 40uM 3-^13C lactate to allow absolute quantification of lactate isotopologues, including lactate generated via glycolysis ([1,2,3-^13C3] enriched) vs. the pentose phosphate pathway ([2,3-^13C2] enriched), as described ([Reisz et al., 2016]). Metabolite assignments, peak area integration and isotopologues distributions were determined using Maven (Princeton University) ([Nemkov et al., 2015]; [Nemkov et al., 2017]).
# Data were auto-scaled and normalized to zero-hour time points. Metabolites were removed from the dataset if greater than 50% of the samples contained missing values or the relative standard deviation among replicates exceeded 25%. Additionally, data was filtered using the interquartile range to reduce near-constant values from the experiment by 5%.
# A principal component analysis of preprocessed data was plotted with the 95% confidence interval minimum volume enclosing ellipsoid for each respective group (MetaboAnalyst, cluster, plotly). A two-way repeated measures analysis of variance (ANOVA) was performed with multiple comparisons corrected for using a false discovery rate p-value cutoff of 0.05. Metabolite-Pathway analysis was performed using the R package of MetaboAnalyst, as previously described ([Xia and Wishart, 2010]). Metabolite-Protein nodal analysis was performed using omicsnet.ca and as previously described ([Zhou and Xia, 2018]).
# [1] = treated erythrocytes, one value per replicate sample, polarity +
# [2] = treated erythrocytes, one value per replicate sample, polarity -
# [3] = treated erythrocytes, replicate samples
smiles,measurement,setting,value
CC(C)(C)C(=O)OCOP(=O)(OCOC(=O)C(C)(C)C)C1CCCN(O)C1=O (stereo not shown) [POMHEX],AMP level (metabolomics signal),replicate samples,3.72E+05 and 4.97E+05 and 4.88E+05
same,ATP level (metabolomics signal),replicate samples,1.06E+05 and 4.51E+04 and 2.86E+04
same,Adenine level (metabolomics signal),replicate samples,1.10E+05 and 1.13E+05 and 1.03E+05
same,Cytosine level (metabolomics signal),replicate samples,0.00E+00
same,L-alanine level (metabolomics signal),replicate samples,7.74E+06 and 6.77E+06 and 7.99E+06
same,L-arginine level (metabolomics signal),replicate samples,4.96E+06 and 6.71E+06 and 3.72E+06
same,L-asparagine level (metabolomics signal),replicate samples,5.50E+06 and 5.88E+06 and 6.25E+06
same,L-aspartate level (metabolomics signal),replicate samples,1.08E+07 and 1.19E+07 and 1.12E+07
same,L-cysteine level (metabolomics signal),replicate samples,4.98E+05 and 5.97E+05 and 1.05E+06
same,L-glutamate level (metabolomics signal),replicate samples,5.99E+06 and 6.14E+06 and 6.66E+06
same,L-glutamine level (metabolomics signal),replicate samples,6.37E+07 and 6.26E+07 and 6.35E+07
same,L-histidine level (metabolomics signal),replicate samples,1.60E+06 and 1.47E+06 and 1.87E+06
same,L-isoleucine level (metabolomics signal),replicate samples,1.28E+07 and 1.42E+07 and 1.14E+07
same,L-leucine level (metabolomics signal),replicate samples,1.47E+08 (2×) and 1.27E+08
same,L-lysine level (metabolomics signal),replicate samples,1.47E+06 and 1.24E+06 and 1.45E+06
same,L-methionine level (metabolomics signal),replicate samples,1.56E+07 and 1.66E+07 and 1.27E+07
same,L-phenylalanine level (metabolomics signal),replicate samples,7.06E+06 and 6.50E+06 and 4.97E+06
same,L-proline level (metabolomics signal),replicate samples,6.39E+07 and 5.46E+07 and 5.96E+07
same,L-serine level (metabolomics signal),replicate samples,4.50E+06 and 4.60E+06 and 4.86E+06
same,L-threonine level (metabolomics signal),replicate samples,8.82E+06 and 8.15E+06 and 8.77E+06
same,L-tryptophan level (metabolomics signal),replicate samples,1.85E+06 and 1.63E+06 and 1.27E+06
same,L-tyrosine level (metabolomics signal),replicate samples,2.13E+07 and 2.30E+07 and 1.69E+07
same,L-valine level (metabolomics signal),replicate samples,1.59E+08 and 1.62E+08 and 1.47E+08
same,dCMP level (metabolomics signal),replicate samples,1.62E+04 and 1.66E+04 and 1.35E+04
same,dTMP level (metabolomics signal),replicate samples,1.10E+06 and 1.20E+06 and 9.63E+05
same,glycine level (metabolomics signal),replicate samples,1.51E+06 and 1.66E+06 and 1.67E+06
same,N-Acyl-D-aspartate (C06380) metabolite signal,[1],6.16E+04 and 5.50E+04 and 5.26E+04
same,Poly-gamma-D-glutamate (C05723) metabolite signal,[1],4.45E+07 and 4.25E+07 and 4.46E+07
same,D-Ribitol 5-phosphate (C01068) metabolite signal,[2],1.15E+04 and 2.30E+04 and 2.25E+04
same,"D-glucono-1,5-lactone (C00198) metabolite signal",[2],2.58E+05 and 2.64E+05 and 3.28E+05
same,L-Noradrenaline (C00547) metabolite signal,[2],2.02E+04 and 2.76E+04 and 1.70E+04
same,Oxalosuccinate (C05379) metabolite signal,[2],8.49E+04 and 8.94E+04 and 8.00E+04
same,Pyridoxamine (C00534) metabolite signal,[2],9.67E+03 and 8.58E+03 and 9.61E+03
same,Thioredoxin disulfide (C00343) metabolite signal,[2],2.29E+04 and 2.69E+04 and 2.77E+04
same,1-4-beta-D-Xylan (metabolite signal),[3],1.64E+05 and 1.40E+05 and 1.93E+05
same,2-Hydroxyglutarate/Citramalate (C02630) metabolite signal,[3],7.84E+04 and 5.75E+04 and 5.66E+04
same,5-6-Dihydrothymine (C00906) metabolite signal,[3],2.80E+05 and 2.87E+05 and 2.28E+05
same,5-10-Methenyltetrahydrofolate (metabolite signal),[3],1.54E+05 and 1.37E+05 and 1.05E+05
same,5-Hydroxyisourate (C11821) metabolite signal,[3],4.81E+06 and 4.49E+06 and 3.27E+06
same,5-L-Glutamyl-taurine (metabolite signal),[3],1.49E+05 and 1.28E+05 and 1.35E+05
same,5-Oxoproline (metabolite signal),[3],8.83E+05 and 1.09E+06 and 7.57E+05
same,(S)(+)-Allantoin (C02350) metabolite signal,[3],7.40E+03 and 8.26E+03 and 9.04E+03
same,Allantoate (C00499) metabolite signal,[3],5.78E+05 and 5.92E+05 and 8.52E+05
same,Ascorbate (metabolite signal),[3],7.64E+04 and 9.21E+04 and 9.25E+04
same,CMP-N-acetylneuraminate (metabolite signal),[3],2.55E+04 and 6.91E+03 and 6.08E+03
same,Carnosine (metabolite signal),[3],1.46E+05 and 1.52E+05 and 1.15E+05
same,Citrate (C00158) metabolite signal,[3],2.76E+04 and 1.91E+04 and 1.57E+04
same,Creatine (metabolite signal),[3],1.37E+08 and 1.42E+08 and 1.27E+08
same,Creatinine (metabolite signal),[3],2.18E+06 and 2.32E+06 and 1.85E+06
same,Cys-Gly (metabolite signal),[3],7.81E+05 and 5.57E+05 and 7.70E+05
same,D-Glucosamine (metabolite signal),[3],3.33E+05 and 2.53E+05 and 2.71E+05
same,D-Glucose (C00031) metabolite signal,[3],3.99E+06 and 4.57E+06 and 4.90E+06
same,D-Ribose (C00121) metabolite signal,[3],1.11E+05 and 8.97E+04 and 8.43E+04
same,Dehydroascorbate (metabolite signal),[3],3.57E+04 and 4.39E+04 and 4.65E+04
same,Dihydrofolate (metabolite signal),[3],1.44E+06 and 1.74E+06 and 1.87E+06
same,Dimethylglycine (metabolite signal),[3],6.87E+05 and 6.86E+05 and 5.98E+05
same,Diphosphate (C00013) metabolite signal,[3],2.84E+04 and 3.52E+04 and 3.86E+04
same,Fumarate (C00122) metabolite signal,[3],9.00E+04 and 7.84E+04 and 7.19E+04
same,Glutathione (C00051) metabolite signal,[3],4.59E+07 and 3.87E+07 and 4.33E+07
same,Glutathione disulfide (metabolite signal),[3],3.00E+05 and 9.38E+04 and 7.81E+04
same,Hypoxanthine (C00262) metabolite signal,[3],7.14E+03 and 5.93E+03 and 0.00E+00
same,IMP (C00130) metabolite signal,[3],4.51E+04 and 3.74E+04 and 4.61E+04
same,Inosine (C00294) metabolite signal,[3],6.84E+04 and 6.73E+04 and 4.20E+04
same,L-Citrulline (metabolite signal),[3],2.71E+06 and 3.04E+06 and 2.48E+06
same,L-Homoserine (metabolite signal),[3],2.62E+05 and 3.31E+05 and 2.39E+05
same,Lactate (C01432) metabolite signal,[3],1.75E+07 and 2.07E+07 and 1.43E+07
same,Malate (C00149) metabolite signal,[3],1.61E+05 and 9.39E+04 and 7.61E+04
same,Mannitol (C00392) metabolite signal,[3],1.83E+05 and 1.22E+05 and 1.51E+05
same,N-Acetylneuraminate (metabolite signal),[3],1.66E+04 and 1.46E+04 and 8.13E+03
same,N-Glycoloyl-neuraminate (metabolite signal),[3],7.64E+04 and 8.68E+04 and 1.14E+05
same,NAD+ (C00003) metabolite signal,[3],5.29E+04 and 5.95E+04 and 9.85E+04
same,Nicotinamide (C00153) metabolite signal,[3],2.02E+07 and 2.16E+07 and 1.82E+07
same,Ornithine (metabolite signal),[3],1.75E+06 and 1.63E+06 and 1.64E+06
same,Oxaloacetate (C00036) metabolite signal,[3],3.72E+04 and 4.43E+04 and 3.47E+04
same,Phosphoserine (metabolite signal),[3],2.32E+04 and 2.57E+04 and 1.04E+04
same,Putrescine (metabolite signal),[3],4.24E+04 and 2.70E+04 and 3.11E+04
same,Pyridoxal (C00250) metabolite signal,[3],4.26E+04 and 5.24E+04 and 7.64E+04
same,Pyruvate (C00022) metabolite signal,[3],2.17E+06 (2×) and 1.35E+06
same,S-Glutathionyl-L-cysteine (metabolite signal),[3],2.24E+05 and 8.00E+04 and 6.92E+04
same,Sedoheptulose 1-phosphate (C06222) metabolite signal,[3],2.39E+04 and 1.32E+04 and 9.55E+03
same,Spermidine (metabolite signal),[3],6.66E+06 and 5.53E+06 and 5.68E+06
same,Spermine (metabolite signal),[3],8.48E+06 and 7.61E+06 and 6.89E+06
same,Succinate (C00042) metabolite signal,[3],3.87E+04 and 5.97E+04 and 7.05E+04
same,Thymidine (C00214) metabolite signal,[3],1.24E+04 and 9.43E+03 and 3.23E+03
same,UDP (C00015) metabolite signal,[3],8.83E+04 and 9.94E+04 and 8.18E+04
same,UDP-N-acetyl-D-glucosamine (metabolite signal),[3],8.06E+03 and 2.61E+03 and 5.41E+03
same,UDP-glucose (C00029) metabolite signal,[3],9.76E+03 and 1.91E+03 and 5.75E+03
same,Urate (C00366) metabolite signal,[3],3.58E+04 and 2.84E+04 and 2.03E+04
same,Xanthine (C00385) metabolite signal,[3],7.82E+04 and 7.20E+04 and 8.31E+04
same,alpha-D-Glucosamine 1-phosphate (metabolite signal),[3],9.63E+05 and 8.22E+05 and 5.48E+05
same,alpha-D-Ribose 1-phosphate (C00620) metabolite signal,[3],4.34E+04 and 2.92E+04 and 1.97E+04
same,gamma-Glutamyl-gamma-aminobutyrate (metabolite signal),[3],5.87E+04 and 5.26E+04 and 3.36E+04
same,gamma-L-Glutamyl-D-alanine (metabolite signal),[3],4.70E+04 and 4.49E+04 and 2.74E+04
same,gamma-L-Glutamyl-L-cysteine (metabolite signal),[3],4.20E+04 and 3.03E+04 and 3.96E+04
